These are literature values, as cited in publication PMC11865562 (Scientific Reports, 2025).

The data set relates to P-gp.

For the molecule `CNC(=O)c1ccc(-c2cnc3ncc(Cc4ccc5ncccc5c4)n3n2)cc1F` [Capmatinib, capmatinib], the “P-gp substrate (reported)” value is reported as “P-gp substrate”.
